The target of experiment [1] is T1, MAP kinase-interacting serine/threonine-protein kinase 2 (Homo sapiens, UniProt Q9HBH9). Description: Inhibition of N-terminal GST-tagged recombinant human full length MNK2 expressed in baculovirus expression system at 10 uM incubated for 1 hr by Kinase Tracer 236 based LanthaScreen Eu kinase binding assay relative to control.
Target sequence in this assay (Q9HBH9 whole entry, looked up): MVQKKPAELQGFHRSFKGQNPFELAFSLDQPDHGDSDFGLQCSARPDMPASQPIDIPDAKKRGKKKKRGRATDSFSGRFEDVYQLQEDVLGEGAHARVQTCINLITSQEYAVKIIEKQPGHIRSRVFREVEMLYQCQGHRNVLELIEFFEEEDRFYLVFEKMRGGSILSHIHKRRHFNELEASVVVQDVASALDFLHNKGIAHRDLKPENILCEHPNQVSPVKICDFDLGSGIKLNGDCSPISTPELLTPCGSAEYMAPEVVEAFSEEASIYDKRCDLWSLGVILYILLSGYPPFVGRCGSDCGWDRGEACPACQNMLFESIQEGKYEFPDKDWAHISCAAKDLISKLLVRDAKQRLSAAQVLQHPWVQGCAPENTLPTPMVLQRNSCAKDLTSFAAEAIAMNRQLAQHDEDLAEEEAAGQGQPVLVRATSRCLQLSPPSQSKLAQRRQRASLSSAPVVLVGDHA
Experiment [2] addresses T1, MAP kinase-interacting serine/threonine-protein kinase 2. As to the kind of experiment: Inhibition of N-terminal GST-tagged recombinant human full length MNK2 expressed in baculovirus expression system incubated for 1 hr by Kinase Tracer 236 based LanthaScreen Eu kinase binding assay relative to control. (In TR-FRET formats the signal depends on donor and acceptor labels being close together.)
Target sequence in this assay (Q9HBH9 whole entry): as the sequence (Q9HBH9 whole entry, looked up) above

In experiment [3] the test system is MOLM-13. Description: Cytotoxicity against human MOLM-13 cells assessed as reduction in cell viability after 72 hrs by MTT assay. It is filed as functional, cell-based. The following applies: MOLM-13, 72 h. (Tetrazolium assays rely on reduction of a dye to a coloured formazan, in cell work by metabolically active cells.)
Experiment [4] relates to MV4-11. As to the kind of experiment: Cytotoxicity against human MV4-11 cells assessed as reduction in cell viability after 72 hrs by MTT assay. It is filed as functional, cell-based. The following applies: MV4-11, 72 h.
Experiment [5] concerns MOLM-13. As to the kind of experiment: Induction of cell cycle arrest in human MOLM-13 cells assessed as increase in accumulation at sub-G1 phase at 3 to 30 uM after 72 hrs by propidium iodide staining based flow cytometric analysis. Type of experiment: functional. Particulars: dose microM 3-30, time 72.0 hrs. On the technique in general: Flow cytometry measures light scatter and fluorescence of single cells or particles in a stream.

The test system of experiment [6] is MOLM-13. As to the kind of experiment: Induction of apoptosis in human MOLM-13 cells assessed as increase in cleaved PARP level after 72 hrs by Western blot analysis. Particulars: dose microM 1-30, time 72.0 hrs. Type of experiment: functional, cell-based.
Experiment [7] addresses T2, MAP kinase-interacting serine/threonine-protein kinase 1 (Homo sapiens, UniProt Q9BUB5). Description: Inhibition of GST-tagged recombinant human full length MNK1 expressed in insect cells.
Target sequence in this assay (Q9BUB5 whole entry): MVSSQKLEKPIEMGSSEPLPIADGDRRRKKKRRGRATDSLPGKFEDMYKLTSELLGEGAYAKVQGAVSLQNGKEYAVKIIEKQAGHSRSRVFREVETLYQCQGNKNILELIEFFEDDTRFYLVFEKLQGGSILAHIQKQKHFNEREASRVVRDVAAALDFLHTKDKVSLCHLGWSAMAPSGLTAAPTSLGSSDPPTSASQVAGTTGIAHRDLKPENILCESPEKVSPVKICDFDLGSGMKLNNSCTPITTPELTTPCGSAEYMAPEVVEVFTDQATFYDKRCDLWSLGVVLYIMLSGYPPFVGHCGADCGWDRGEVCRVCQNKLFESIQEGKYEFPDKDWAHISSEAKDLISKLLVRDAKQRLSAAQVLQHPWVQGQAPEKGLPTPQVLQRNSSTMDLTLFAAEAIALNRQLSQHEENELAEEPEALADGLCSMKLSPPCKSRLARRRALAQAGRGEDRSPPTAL
The target of experiment [8] is T3, MAP kinase-interacting serine/threonine-protein kinase 1/2 (Homo sapiens) (UniProt Q9HBH9+Q9BUB5). As to the kind of experiment: Inhibition of MNK1/MNK2 in human MOLM-13 cells assessed as reduction in eIF4E phosphorylation reduction in eIF4E phosphorylation at 30 uM after 24 to 48 hrs by Western blot analysis. Type of experiment: cell-based. The following applies: time hrs 24-48.

The target of experiment [9] is T3, MAP kinase-interacting serine/threonine-protein kinase 1/2 (Homo sapiens). Description: Inhibition of MNK1/MNK2 in human MV4-11 cells assessed as reduction in eIF4E phosphorylation reduction in eIF4E phosphorylation after 24 to 48 hrs by Western blot analysis. The following applies: dose microM 1-30, time hrs 24-48. Type of experiment: cell-based.
Experiment [10] relates to MOLM-13. As to the kind of experiment: Induction of cell death in human MOLM-13 cells assessed as increase in accumulation at sub-G1 phase after 72 hrs by propidium iodide staining based flow cytometric analysis. Type of experiment: functional. Particulars: dose microM 1-30, time 72.0 hrs.
Experiment [11] has as its target T2, MAP kinase-interacting serine/threonine-protein kinase 1. As to the kind of experiment: Inhibition of GST-tagged recombinant human full length MNK1 expressed in insect cells at 10 uM relative to control.
Target sequence in this assay (Q9BUB5 whole entry, looked up): as the sequence (Q9BUB5 whole entry) above
The test system of experiment [12] is MV4-11. Description: Induction of apoptosis in human MV4-11 cells assessed as increase in cleaved caspace-3 level after 72 hrs by Western blot analysis. Particulars: dose microM 1-30, time 72.0 hrs. Type of experiment: functional, cell-based.
Experiment [13] concerns the target T3, MAP kinase-interacting serine/threonine-protein kinase 1/2 (Homo sapiens). As to the kind of experiment: Inhibition of MNK1/MNK2 in human MV4-11 cells assessed as reduction in eIF4E phosphorylation reduction in eIF4E phosphorylation at 30 uM after 24 to 48 hrs by Western blot analysis. Particulars: time hrs 24-48. Type of experiment: cell-based.
In experiment [14] the test system is MV4-11. Description: Induction of cell cycle arrest in human MV4-11 cells assessed as increase in accumulation at sub-G1 phase at 3 to 30 uM after 72 hrs by propidium iodide staining based flow cytometric analysis. It is filed as functional. Particulars: dose microM 3-30, time 72.0 hrs.
The test system of experiment [15] is MV4-11. As to the kind of experiment: Induction of cell death in human MV4-11 cells assessed as increase in accumulation at sub-G1 phase after 72 hrs by propidium iodide staining based flow cytometric analysis. Type of experiment: functional. Particulars: dose microM 1-30, time 72.0 hrs.
Experiment [16] deals with MOLM-13. Description: Induction of apoptosis in human MOLM-13 cells assessed as increase in cleaved caspace-3 level after 72 hrs by Western blot analysis. Particulars: dose microM 1-30, time 72.0 hrs. Type of experiment: functional, cell-based.
Experiment [17] relates to MV4-11. Description: Induction of apoptosis in human MV4-11 cells assessed as increase in cleaved PARP level after 72 hrs by Western blot analysis. The following applies: dose microM 1-30, time 72.0 hrs. It is filed as functional, cell-based.
Experiment [18] has as its target T3, MAP kinase-interacting serine/threonine-protein kinase 1/2 (Homo sapiens). Description: Inhibition of MNK1/MNK2 in human MOLM-13 cells assessed as reduction in eIF4E phosphorylation reduction in eIF4E phosphorylation after 24 to 48 hrs by Western blot analysis. Type of experiment: cell-based. The following applies: dose microM 1-30, time hrs 24-48.
The test system of experiment [19] is MOLM-13. As to the kind of experiment: Induction of cell cycle arrest in human MOLM-13 cells assessed as increase in accumulation at sub-G1 phase at 30 uM after 72 hrs by propidium iodide staining based flow cytometric analysis relative to control. It is filed as functional.
For experiment [20], the target named is T3, MAP kinase-interacting serine/threonine-protein kinase 1/2 (Homo sapiens). Description: Inhibition of MNK1/MNK2 in human MV4-11 cells assessed as reduction in eIF4E phosphorylation reduction in eIF4E phosphorylation at 10 uM after 24 to 48 hrs by Western blot analysis. It is filed as cell-based. The following applies: time hrs 24-48.
In experiment [21] the test system is MV4-11. As to the kind of experiment: Induction of cell cycle arrest in human MV4-11 cells assessed as increase in accumulation at sub-G1 phase at 30 uM after 72 hrs by propidium iodide staining based flow cytometric analysis relative to control. It is filed as functional.
The subject of experiment [22] is MOLM-13. Description: Induction of cell cycle arrest in human MOLM-13 cells assessed as increase in accumulation at sub-G1 phase at 1 to 30 uM after 72 hrs by propidium iodide staining based flow cytometric analysis. It is filed as functional. Particulars: dose microM 1-30, time 72.0 hrs.
For experiment [23], the system named is MV4-11. Description: Induction of cell cycle arrest in human MV4-11 cells assessed as increase in accumulation at sub-G1 phase at 1 to 30 uM after 72 hrs by propidium iodide staining based flow cytometric analysis. It is filed as functional. The following applies: dose microM 1-30, time 72.0 hrs.
Experiment [24] addresses T3, MAP kinase-interacting serine/threonine-protein kinase 1/2 (Homo sapiens). As to the kind of experiment: Inhibition of MNK1/MNK2 in human MOLM-13 cells assessed as reduction in eIF4E phosphorylation reduction in eIF4E phosphorylation at 10 uM after 24 to 48 hrs by Western blot analysis. Type of experiment: cell-based. Particulars: time hrs 24-48.

The text below walks through data of ChEMBL document CHEMBL4699554, “Biological Evaluation of Selected Flavonoids as Inhibitors of MNKs Targeting Acute Myeloid Leukemia” (J Nat Prod, 2020).

Structures are written as SMILES. The source made the active and inactive calls. No cut-off for these calls is given here.

On to `COc1cc(O)c(C(=O)/C=C/c2ccc(C(=O)O)cc2)c(OC)c1`, for which the inhibition in experiment [1] was > 70%. For the same compound, the IC50 in experiment [2] turned out to be 3.7 µM.

On to `O=c1c(O)c(-c2ccncc2)oc2ccc(Cl)cc12`, for which the inhibition in experiment [1] was > 70%. The IC50 in experiment [2] was 6.49 µM.

Take `COc1ccc(C(=O)/C=C/c2ccc(O)c(Br)c2)cc1`: the inhibition in [1] was > 70%. The IC50 in experiment [2] worked out at 4.67 µM.

In the case of `COc1cc2c(c(OC)c1CC=C(C)C)C(=O)CC(c1ccc(OC)c(OC)c1C/C=C(\C)CCC=C(C)C)O2` (centres undefined), the inhibition in [1] was > 70%. Moreover, the IC50 in experiment [2] was found to be 8.26 µM.

Consider `COc1ccc(-c2oc3cc(OC)c(OC)c(O)c3c(=O)c2O)cc1O`, for which the inhibition in experiment [1] is > 70%. Besides, the IC50 in experiment [2] came out at 1.7 µM.

For the compound `COc1cc(O)c(C(=O)/C=C/c2ccccc2)c(OC)c1`, the inhibition in experiment [1] is > 50%.

With `COc1ccc(-c2cc(=O)c3c(O)cc(O)cc3o2)cc1`, the inhibition in experiment [1] is > 50%.

As to `COc1ccc(-c2cc(=O)c3ccc(O)cc3o2)cc1OC`, in [1], the inhibition was > 50%.

On to `O=C(/C=C/c1cccc(O)c1)c1ccccc1O`, for which, in [1], the inhibition was > 50%.

On to `O=c1cc(-c2ccccc2)oc2cc(O)ccc12`, for which the inhibition in experiment [1] was > 50%.

Turning to `O=c1cc(-c2ccc(O)cc2)oc2cc(O)cc(O)c12` [APIGENIN], in experiment [1], the inhibition is > 70%. For the same compound, the IC50 in [2] was 0.308 µM.

For the compound `COc1cc(O)c2c(=O)cc(-c3ccc(O)cc3)oc2c1` [GENKWANIN], the IC50 in the experiment on MOLM-13 [3] was > 10 µM; in experiment [2], 0.979 µM; in the experiment with MV4-11 [4], > 10 µM. The inhibition in experiment [1] is > 70%.

Regarding `COc1c(O)cc2oc(-c3ccc(O)cc3)cc(=O)c2c1O` [HISPIDULIN], the IC50 worked out at 6.4 µM with MOLM-13 [3], 1.2 µM in experiment [7], 0.252 µM in experiment [2] and 8.2 µM in the experiment on MV4-11 [4]. Further, the outcome in the experiment with MOLM-13 [5], in the experiment on MOLM-13 [10], in the experiment on MV4-11 [14] and with MV4-11 [15] was Active. Further, the Activity entry in the experiment with MOLM-13 [6], in the experiment with MV4-11 [12], in the experiment with MOLM-13 [16] and in the experiment with MV4-11 [17] was “Dose-dependent effect” throughout. In addition, the inhibition was 100% in experiment [8]; “Dose-dependent effect” in experiment [9]; 93% in [1]; > 70% in [11]; 100% in experiment [13]; “Dose-dependent effect” in [18].

On to `O=c1cc(-c2ccc(O)c(O)c2)oc2cc(O)cc(O)c12` [LUTEOLIN], for which the 50% inhibitory concentration (IC50) in the experiment on MOLM-13 [3] worked out at 4.5 µM; in [7], 0.179 µM; in experiment [2], 0.579 µM; in the experiment with MV4-11 [4], 3.1 µM. Also, the Activity entry in the experiment with MOLM-13 [6] was “Dose-dependent effect”; in the experiment with MOLM-13 [19] it was >80%; in the experiment on MV4-11 [12], “Dose-dependent effect”; in the experiment on MOLM-13 [16], “Dose-dependent effect”; in the experiment on MV4-11 [17] it was “Dose-dependent effect”; with MV4-11 [21], >80%. For the same compound, the inhibition entry was “Dose-dependent effect” in experiment [9]; > 70% in experiment [1]; > 70% in experiment [11]; 100% in experiment [20]; “Dose-dependent effect” in [18]; 100% in experiment [24]. The result with MOLM-13 [10], in the experiment on MV4-11 [15], in the experiment with MOLM-13 [22] and in the experiment on MV4-11 [23] was Active.

One may read the inhibition as the relative decrease from the control value, in per cent. Broadly, the IC50 is the concentration needed to halve the response being measured.
